Experimental data taken from ChEMBL document CHEMBL4177668, “Synthesis and biological evaluation of thiazole derivatives as GPR119 agonists” (Bioorg Med Chem Lett, 2017).
Active and inactive are the calls of the source. The calls are words filed in the database; no cut-off is given here.

Assays:
[1] = target: T1, Glucose-dependent insulinotropic receptor (Homo sapiens) (UniProt Q8TDV5); experiment: Activation of human GPR119 expressed in CHOK1 cells co-expressing CRE-luciferase at 1 uM after 6 hrs by luciferase reporter gene assay relative to GSK1292263; assay type: functional, cell-based
T1 sequence (whole entry): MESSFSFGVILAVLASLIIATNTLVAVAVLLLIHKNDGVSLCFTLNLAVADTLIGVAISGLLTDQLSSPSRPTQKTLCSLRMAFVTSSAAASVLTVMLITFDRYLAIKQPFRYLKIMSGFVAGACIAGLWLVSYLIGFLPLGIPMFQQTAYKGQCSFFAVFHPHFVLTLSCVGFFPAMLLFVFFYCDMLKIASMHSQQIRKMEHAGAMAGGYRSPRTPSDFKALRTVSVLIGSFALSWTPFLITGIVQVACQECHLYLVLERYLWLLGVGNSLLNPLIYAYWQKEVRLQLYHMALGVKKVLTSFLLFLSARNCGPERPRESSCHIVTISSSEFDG

[2] = tested on: L929; experiment: Cytotoxicity against mouse L929 cells; assay type: cell-based
[3] = tested on: Mus musculus; experiment: Antidiabetic activity in C57BL/6 mouse assessed as decrease in plasma glucose AUC at 30 mg/kg, po pretreated for 30 mins followed by glucose challenge measured up to 120 mins by oGTT assay; assay type: functional, organism-based
[4] = Metabolic stability in human liver microsomes assessed as compound remaining after 30 mins; assay type: ADME, microsome; conditions: read-out: Stability
[5] = tested on: Vero; experiment: Cytotoxicity against African green monkey Vero cells; assay type: cell-based; conditions: Chlorocebus sabaeus
[6] = target: Cytochrome P450 2C19 (Homo sapiens, UniProt P33261); experiment: Inhibition of CYP2C19 (unknown origin); assay type: ADME
Sequence of Cytochrome P450 2C19 (P33261 whole entry): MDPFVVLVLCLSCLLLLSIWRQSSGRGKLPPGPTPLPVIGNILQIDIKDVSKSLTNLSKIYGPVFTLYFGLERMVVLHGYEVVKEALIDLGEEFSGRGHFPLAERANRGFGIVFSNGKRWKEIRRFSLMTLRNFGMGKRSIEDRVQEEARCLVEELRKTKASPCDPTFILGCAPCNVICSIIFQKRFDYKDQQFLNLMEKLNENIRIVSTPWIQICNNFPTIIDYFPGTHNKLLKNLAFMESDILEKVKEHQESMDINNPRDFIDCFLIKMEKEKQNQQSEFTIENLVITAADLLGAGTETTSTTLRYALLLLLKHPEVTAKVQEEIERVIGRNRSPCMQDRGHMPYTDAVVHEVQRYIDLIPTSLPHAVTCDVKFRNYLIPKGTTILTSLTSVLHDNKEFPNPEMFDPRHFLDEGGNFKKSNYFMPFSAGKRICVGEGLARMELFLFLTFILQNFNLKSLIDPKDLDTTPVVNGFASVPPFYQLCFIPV

[7] = tested on: CHO-K1; experiment: Cytotoxicity against CHOK1 cells; assay type: cell-based; conditions: Cricetulus griseus
[8] = target: Cytochrome P450 3A4 (Homo sapiens, UniProt P08684); experiment: Inhibition of CYP3A4 (unknown origin); assay type: ADME
Sequence of Cytochrome P450 3A4 (P08684 whole entry): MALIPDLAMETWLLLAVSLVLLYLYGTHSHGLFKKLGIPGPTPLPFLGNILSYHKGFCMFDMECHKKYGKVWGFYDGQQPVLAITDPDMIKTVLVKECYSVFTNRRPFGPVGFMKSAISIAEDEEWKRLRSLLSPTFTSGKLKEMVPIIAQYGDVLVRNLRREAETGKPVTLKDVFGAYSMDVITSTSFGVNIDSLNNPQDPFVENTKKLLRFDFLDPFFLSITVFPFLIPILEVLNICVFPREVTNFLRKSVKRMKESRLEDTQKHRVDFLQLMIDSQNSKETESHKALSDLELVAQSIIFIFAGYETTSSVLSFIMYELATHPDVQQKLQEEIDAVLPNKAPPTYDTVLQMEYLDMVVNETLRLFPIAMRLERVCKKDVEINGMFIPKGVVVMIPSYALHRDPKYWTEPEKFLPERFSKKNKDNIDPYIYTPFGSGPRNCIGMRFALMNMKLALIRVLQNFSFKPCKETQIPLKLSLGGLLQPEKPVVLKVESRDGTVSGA

[9] = target: hERG (KCNH2) (Homo sapiens, UniProt Q12809); experiment: Inhibition of human ERG at 10 uM
Sequence of hERG (KCNH2) (Q12809 whole entry): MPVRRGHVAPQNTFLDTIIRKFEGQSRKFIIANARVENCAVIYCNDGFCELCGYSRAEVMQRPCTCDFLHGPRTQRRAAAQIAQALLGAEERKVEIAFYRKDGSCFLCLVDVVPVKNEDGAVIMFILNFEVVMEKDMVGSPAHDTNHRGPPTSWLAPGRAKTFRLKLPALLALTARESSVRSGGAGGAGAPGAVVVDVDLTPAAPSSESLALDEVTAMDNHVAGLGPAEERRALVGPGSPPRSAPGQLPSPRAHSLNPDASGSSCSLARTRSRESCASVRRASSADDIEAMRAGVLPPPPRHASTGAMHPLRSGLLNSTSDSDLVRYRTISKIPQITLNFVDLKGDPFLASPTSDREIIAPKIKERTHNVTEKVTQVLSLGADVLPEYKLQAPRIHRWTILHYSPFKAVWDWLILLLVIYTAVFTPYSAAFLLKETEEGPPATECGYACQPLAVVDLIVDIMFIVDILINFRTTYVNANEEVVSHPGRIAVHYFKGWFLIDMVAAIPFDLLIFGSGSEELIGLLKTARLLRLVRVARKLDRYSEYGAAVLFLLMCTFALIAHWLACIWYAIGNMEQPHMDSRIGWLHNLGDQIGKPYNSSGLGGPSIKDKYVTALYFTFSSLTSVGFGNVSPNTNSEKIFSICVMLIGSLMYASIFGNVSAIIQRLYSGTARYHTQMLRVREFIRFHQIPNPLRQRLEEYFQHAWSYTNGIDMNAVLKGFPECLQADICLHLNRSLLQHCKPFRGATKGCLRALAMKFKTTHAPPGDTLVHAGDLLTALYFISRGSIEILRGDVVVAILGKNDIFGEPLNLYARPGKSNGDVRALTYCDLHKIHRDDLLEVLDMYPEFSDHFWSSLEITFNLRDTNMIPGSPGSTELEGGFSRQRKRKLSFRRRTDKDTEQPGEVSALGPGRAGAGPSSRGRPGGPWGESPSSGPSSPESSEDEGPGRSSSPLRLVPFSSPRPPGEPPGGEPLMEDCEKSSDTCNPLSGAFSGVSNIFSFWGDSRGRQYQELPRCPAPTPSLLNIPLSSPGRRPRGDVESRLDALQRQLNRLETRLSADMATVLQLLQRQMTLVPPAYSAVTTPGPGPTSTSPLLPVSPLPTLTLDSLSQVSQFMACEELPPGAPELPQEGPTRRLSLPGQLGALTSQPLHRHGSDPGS

[10] = tested on: HFL1; experiment: Cytotoxicity against HFL1 cells; assay type: cell-based; conditions: Homo sapiens
[11] = target: T2, Cytochrome P450 1A2 (Homo sapiens, UniProt P05177); experiment: Inhibition of CYP1A2 (unknown origin); assay type: ADME
T2 sequence (P05177 whole entry): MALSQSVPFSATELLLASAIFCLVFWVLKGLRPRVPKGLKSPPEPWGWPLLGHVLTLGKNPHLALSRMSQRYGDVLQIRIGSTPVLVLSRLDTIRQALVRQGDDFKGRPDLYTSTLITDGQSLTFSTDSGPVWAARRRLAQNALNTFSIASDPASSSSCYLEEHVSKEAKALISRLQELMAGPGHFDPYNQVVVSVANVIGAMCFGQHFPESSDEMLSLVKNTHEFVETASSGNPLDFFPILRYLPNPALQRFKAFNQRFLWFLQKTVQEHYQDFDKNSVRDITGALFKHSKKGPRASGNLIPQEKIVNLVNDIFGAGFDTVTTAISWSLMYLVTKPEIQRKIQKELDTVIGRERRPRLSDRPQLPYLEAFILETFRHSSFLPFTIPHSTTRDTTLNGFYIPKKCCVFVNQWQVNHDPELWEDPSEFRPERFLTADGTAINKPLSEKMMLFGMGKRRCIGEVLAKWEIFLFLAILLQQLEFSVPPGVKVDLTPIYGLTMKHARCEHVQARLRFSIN

[12] = target: Cytochrome P450 2D6 (Homo sapiens, UniProt P10635); experiment: Inhibition of CYP2D6 (unknown origin); assay type: ADME
Sequence of Cytochrome P450 2D6 (P10635 whole entry): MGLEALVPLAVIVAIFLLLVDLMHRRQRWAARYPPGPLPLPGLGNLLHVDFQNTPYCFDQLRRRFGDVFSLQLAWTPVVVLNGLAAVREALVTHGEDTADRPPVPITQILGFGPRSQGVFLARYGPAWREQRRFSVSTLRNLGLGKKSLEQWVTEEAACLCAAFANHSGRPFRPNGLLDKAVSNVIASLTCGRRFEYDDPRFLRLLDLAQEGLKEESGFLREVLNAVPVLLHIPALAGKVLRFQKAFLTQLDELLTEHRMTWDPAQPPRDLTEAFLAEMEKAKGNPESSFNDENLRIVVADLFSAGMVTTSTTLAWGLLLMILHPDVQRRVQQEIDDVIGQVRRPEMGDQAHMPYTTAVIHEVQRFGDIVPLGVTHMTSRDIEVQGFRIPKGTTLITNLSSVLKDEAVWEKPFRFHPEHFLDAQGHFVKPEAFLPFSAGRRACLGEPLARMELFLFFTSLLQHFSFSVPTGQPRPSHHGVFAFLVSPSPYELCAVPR

[13] = Metabolic stability in rat liver microsomes assessed as compound remaining after 30 mins; assay type: ADME, microsome; conditions: read-out: Stability
[14] = target: T3, Cytochrome P450 2A6 (Homo sapiens, UniProt P11509); experiment: Inhibition of CYP2A6 (unknown origin); assay type: ADME
T3 sequence (P11509 whole entry): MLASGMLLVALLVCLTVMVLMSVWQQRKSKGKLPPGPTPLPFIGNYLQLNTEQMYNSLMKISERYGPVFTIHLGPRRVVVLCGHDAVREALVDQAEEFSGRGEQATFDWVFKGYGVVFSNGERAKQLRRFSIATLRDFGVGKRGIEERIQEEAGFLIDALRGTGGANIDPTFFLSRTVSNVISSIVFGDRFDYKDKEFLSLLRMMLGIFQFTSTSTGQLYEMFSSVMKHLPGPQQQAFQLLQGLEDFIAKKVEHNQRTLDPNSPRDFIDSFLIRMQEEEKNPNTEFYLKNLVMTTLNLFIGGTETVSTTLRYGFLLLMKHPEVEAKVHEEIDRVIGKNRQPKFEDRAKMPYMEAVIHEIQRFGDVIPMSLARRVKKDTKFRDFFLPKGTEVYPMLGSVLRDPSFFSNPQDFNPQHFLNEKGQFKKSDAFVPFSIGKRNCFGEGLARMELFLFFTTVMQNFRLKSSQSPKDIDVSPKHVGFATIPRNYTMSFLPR

[15] = target: T4, Glucose-dependent insulinotropic receptor (Homo sapiens, UniProt Q8TDV5); experiment: Agonist activity at human GPR119 expressed in CHOK1 cells co-expressing CRE-luciferase after 6 hrs by luciferase reporter gene assay; assay type: functional, cell-based
T4 sequence (Q8TDV5 whole entry): T1 sequence (whole entry)

[16] = tested on: NIH3T3; experiment: Cytotoxicity against mouse NIH/3T3 cells; assay type: cell-based

Row | Activity [1] [%] | EC50 [15] [nM] | SMILES | further results
1 | 49 | – | CCc1cnc(N2CCC(c3nc(COc4ccc(/C=C5\CC(=O)N(CCN6CCOCC6)C5=O)cc4F)cs3)CC2)nc1 | –
2 | 94 | 49 | CCc1cnc(N2CCC(c3nc(COc4ccc(/C=C5\CC(=O)NC5=O)cc4F)cs3)CC2)nc1 | IC50 [2]: > 100 µM; Activity [3]: Active; remaining at 0.5 h [4]: 48.9%; IC50 [5]: > 100 µM; INH [6]: > 100 µM; IC50 [7]: > 100 µM; INH [8]: > 100 µM; inhibition at 10 µM [9]: 5.3%; IC50 [10]: > 100 µM; INH [11]: > 100 µM; INH [12]: > 100 µM; remaining at 0.5 h [13]: 33%; INH [14]: > 100 µM; IC50 [16]: > 100 µM
3 | 34 | – | CCOC(=O)CCc1cnc(N2CCC(c3nc(COc4ccc(-n5cnnn5)cc4)cs3)CC2)nc1 | –
4 | 42 | – | CC(C)(F)CN1CCC(c2nc(COc3c(F)cc(/C=C4\CC(=O)NC4=O)cc3F)cs2)CC1 | –
5 | 71 | 182 | CCc1cnc(N2CCC(c3nc(COc4ccc(/C=C5\CC(=O)NC5=O)cc4)cs3)CC2)nc1 | –
6 | 91 | 87 | CCc1cnc(N2CCC(c3nc(COc4ccc(-n5cnnn5)cc4)cs3)CC2)nc1 [MBX-2982] | IC50 [2]: > 100 µM; Activity [3]: Active; remaining at 0.5 h [4]: 7.8%; IC50 [5]: > 100 µM; INH [6]: > 100 µM; IC50 [7]: > 100 µM; INH [8]: 2.24 µM; inhibition at 10 µM [9]: 10.5%; IC50 [10]: > 100 µM; INH [11]: > 100 µM; INH [12]: > 100 µM; remaining at 0.5 h [13]: 20.6%; INH [14]: 3.53 µM; IC50 [16]: > 100 µM
7 | 59 | 211 | CCc1cnc(N2CCC(c3nc(COc4c(F)cc(/C=C5\CC(=O)NC5=O)cc4F)cs3)CC2)nc1 | –
8 | 61 | 240 | CCc1cnc(N2CCC(c3nc(COc4ccc(/C=C5\CC(=O)N(CC6CCOCC6)C5=O)cc4F)cs3)CC2)nc1 | –
9 | 43 | – | CCc1cnc(N2CCC(c3nc(COc4ccc(/C=C5\SC(=S)N(N)C5=O)cc4F)cs3)CC2)nc1 | –
10 | 31 | – | CC(C)(O)CN1CCC(c2nc(COc3ccc(/C=C4\CC(=O)NC4=O)cc3F)cs2)CC1 | –
11 | 69 | 157 | CC(C)(C)OC(=O)N1CCC(c2nc(COc3ccc(/C=C4\CC(=O)NC4=O)cc3F)cs2)CC1 | –
12 | 67 | 82 | CCc1cnc(N2CCC(c3nc(COc4ccc(/C=C5\CC(=O)N(c6ccccc6)C5=O)cc4F)cs3)CC2)nc1 | –
13 | 28 | – | NCCOCCOCCOCCNC(=O)CCc1cnc(N2CCC(c3nc(COc4ccc(-n5cnnn5)cc4)cs3)CC2)nc1 | –
14 | 22 | – | NC(=O)CCc1cnc(N2CCC(c3nc(COc4ccc(-n5cnnn5)cc4)cs3)CC2)nc1 | –
15 | 63 | – | CCc1cnc(N2CCC(c3nc(COc4ccc(/C=C5\CC(=O)N(CCNC(=O)OC(C)(C)C)C5=O)cc4F)cs3)CC2)nc1 | –
16 | 90 | 18 | CCc1cnc(N2CCC(c3nc(COc4ccc(/C=C5\CC(=O)NC5=O)cc4C)cs3)CC2)nc1 | IC50 [2]: > 100 µM; Activity [3]: Active; remaining at 0.5 h [4]: 17.1%; IC50 [5]: > 100 µM; INH [6]: > 100 µM; IC50 [7]: > 100 µM; INH [8]: > 13.8 µM; inhibition at 10 µM [9]: 3.3%; IC50 [10]: > 100 µM; INH [11]: > 100 µM; INH [12]: > 100 µM; remaining at 0.5 h [13]: 32.4%; INH [14]: > 100 µM; IC50 [16]: > 100 µM
17 | 65 | 100 | CCc1cnc(N2CCC(c3nc(COc4ccc(/C=C5\CCNC5=O)cc4F)cs3)CC2)nc1 | –
18 | 118 | 103 | CC(C)(C)OC(=O)N1CCC(c2nc(COc3ccc(-n4cnnn4)cc3)cs2)CC1 | –
19 | 55 | – | CCc1cnc(N2CCC(c3nc(COc4ccc(/C=C/C(=O)O)cc4F)cs3)CC2)nc1 | –
20 | 30 | – | CC(C)(C)OC(=O)NCCNC(=O)CCc1cnc(N2CCC(c3nc(COc4ccc(-n5cnnn5)cc4)cs3)CC2)nc1 | –

Row | Activity [1] [%] | EC50 [15] [nM] | SMILES | further results
21 | 81 | 19 | Cc1cc(/C=C2\CC(=O)NC2=O)ccc1OCc1csc(C2CCN(C(=O)OC(C)(C)C)CC2)n1 | –
22 | 48 | – | CC(C)(F)CN1CCC(c2nc(COc3ccc(/C=C4\CC(=O)NC4=O)cc3)cs2)CC1 | –
23 | 20 | – | N=C(N)NC(=N)N1CCC(c2nc(COc3ccc(-n4cnnn4)cc3)cs2)CC1 | –
24 | 60 | 780 | CCc1cnc(N2CCC(c3nc(COc4ccc(/C=C5\SC(=O)NC5=O)cc4F)cs3)CC2)nc1 | –
25 | 28 | – | C[N+](C)(C)CCNC(=O)CCc1cnc(N2CCC(c3nc(COc4ccc(-n5cnnn5)cc4)cs3)CC2)nc1 | –
26 | 29 | – | O=C(O)CCc1cnc(N2CCC(c3nc(COc4ccc(-n5cnnn5)cc4)cs3)CC2)nc1 | –
27 | 53 | – | CC(C)(F)CN1CCC(c2nc(COc3ccc(/C=C4\CC(=O)NC4=O)cc3F)cs2)CC1 | –
28 | 41 | – | CC(C)(C)OC(=O)N1CCC(c2nc(COc3c(F)cc(/C=C4\CC(=O)NC4=O)cc3F)cs2)CC1 | –
29 | 27 | – | NCCNC(=O)CCc1cnc(N2CCC(c3nc(COc4ccc(-n5cnnn5)cc4)cs3)CC2)nc1 | –
30 | 26 | – | O=C(CCc1cnc(N2CCC(c3nc(COc4ccc(-n5cnnn5)cc4)cs3)CC2)nc1)NOCc1ccccc1 | –
31 | 46 | – | Cc1cc(/C=C2\CC(=O)NC2=O)ccc1OCc1csc(C2CCN(CC(C)(C)F)CC2)n1 | –
32 | 39 | – | CCc1cnc(N2CCC(c3nc(COc4ccc(/C=C5\SC(=S)NC5=O)cc4F)cs3)CC2)nc1 | –
33 | 36 | – | Cc1cc(/C=C2\CC(=O)NC2=O)ccc1OCc1csc(C2CCN(CC(C)(C)O)CC2)n1 | –
34 | 25 | – | [N-]=[N+]=NCCOCCOCCOCCNC(=O)CCc1cnc(N2CCC(c3nc(COc4ccc(-n5cnnn5)cc4)cs3)CC2)nc1 | –
35 | 57 | – | CC(C)(C)OC(=O)N1CCC(c2nc(COc3ccc(/C=C4\CC(=O)NC4=O)cc3)cs2)CC1 | –
36 | 32 | – | CCc1cnc(N2CCC(c3nc(COc4ccc(/C=C5\CC(=S)N(CC(=O)O)C5=O)cc4F)cs3)CC2)nc1 | –
37 | 32 | – | CC(C)(O)CN1CCC(c2nc(COc3c(F)cc(/C=C4\CC(=O)NC4=O)cc3F)cs2)CC1 | –
38 | 51 | – | CCc1cnc(N2CCC(c3nc(COc4ccc(/C=C5\CC(=O)N(CCN)C5=O)cc4F)cs3)CC2)nc1 | –
39 | 27 | – | CC(C)(O)CN1CCC(c2nc(COc3ccc(/C=C4\CC(=O)NC4=O)cc3)cs2)CC1 | –
